Legend:
[1] = target: Protein farnesyltransferase (Bos taurus, UniProt P29702+P49355); experiment: Inhibition of Farnesyltransferase catalyzed incorporation of [3H]-FPP into recombinant Ras-CVIM.; assay type: functional
[2] = target: T1, Geranylgeranyl transferase type I (Homo sapiens, UniProt P49354+P53609); experiment: Inhibition of the human Geranylgeranyl transferase type I catalyzed incorporation of [3H]GGPP into a biotinylated peptide corresponding to the C-terminus of human K-Ras.; assay type: functional
[3] = target: Protein farnesyltransferase; experiment: Displacement of radiolabeled FTI from Farnesyltransferase in v-Ha-ras-transformed Rat1 cells.; assay type: cell-based
[4] = target: Protein farnesyltransferase (Homo sapiens, UniProt P49354+P49356); experiment: Inhibition of HDJ2 farnesylation in PSN-1 cells; assay type: functional, cell-based
[5] = target: T1, Geranylgeranyl transferase type I; experiment: Inhibition of geranylgeranylation of Rap1a in PSN-1 cells; assay type: functional, cell-based

SMILES | IC50 [1] | IC50 [2] | IC50 [3] | EC50 [4] | EC50 [5]
O=C1CN(Cc2cncn2Cc2ccc(-c3cccc(Cl)c3)cc2)CCN1c1cccc(Cl)c1 | 17 nM | 8450 nM |  |  | 
O=C1CN(Cc2cncn2Cc2ccc(-c3ccccc3)cc2)CCN1c1cccc(Cl)c1 | 12 nM | 1390 nM | 1600 nM |  | 
N#Cc1ccc(Cn2cncc2CN2CCN(c3cccc(Cl)c3)C(=O)C2)cc1 [L-778123 FREE BASE] | 2 nM |  |  |  | 
O=C1CN2CCc3cncn3Cc3ccc(Br)c(c3)Oc3ccc4cccc(c4c3)N1CC2 | 1.2 nM | 161 nM | 2 nM |  | 
O=C1CN(Cc2cncn2Cc2ccc(-c3cc(C(F)(F)F)cc(C(F)(F)F)c3)cc2)CCN1c1cccc(Cl)c1 | 3500 nM | 1870 nM |  |  | 
O=C1CN(Cc2cncn2Cc2ccc(-c3ccc(OC(F)(F)F)cc3)nc2)CCN1c1cccc(Cl)c1 | 52 nM | 560 nM |  |  | 
CCCCc1ccc2cc1Oc1ccc3cccc(c3c1)N1CCN(CCc3cncn3C2)CC1=O | 10.3 nM | 2480 nM |  |  | 
O=C1CN2CCc3cncn3Cc3ccc(-c4ccc(C(F)(F)F)cc4)c(c3)Oc3ccc4cccc(c4c3)N1CC2 | 2.1 nM | 15.6 nM | 1.1 nM |  | 
O=C1CN(Cc2cncn2Cc2ccc(-c3cccc(C(F)(F)F)c3)cc2)CCN1c1cccc(Cl)c1 | 410 nM | 2680 nM | 662 nM |  | 
O=C1CN2CCc3cncn3Cc3ccc(C#CCCC(F)(F)F)c(c3)Oc3ccc4cccc(c4c3)N1CC2 | 6.1 nM | 4.8 nM | 0.81 nM |  | 
COc1cc(Cn2cncc2CCN2CCN(c3cccc(Cl)c3)C(=O)C2)ccc1-c1ccc(C(F)(F)F)cc1 | 0.17 nM | 151 nM | 1.2 nM | 28 nM | 3400 nM
O=C1CN2CCc3cncn3Cc3ccc(CCCCC(F)(F)F)c(c3)Oc3ccc4cccc(c4c3)N1CC2 | 3.1 nM | 60 nM | 0.48 nM | 6.9 nM | 800 nM
O=C1CN(Cc2cncn2Cc2ccc(-c3ccc(C(F)(F)F)cc3)cc2)CCN1c1cccc(Cl)c1 |  | 140 nM | 29 nM |  | 
O=C1CN(Cc2cncn2Cc2ccc(-c3ccc(C(F)(F)F)cc3)nc2)CCN1c1cccc(Cl)c1 | 14 nM | 509 nM | 159 nM |  | 
O=C1CN(Cc2cncn2Cc2ccc(-c3ccc(Cl)cc3)nc2)CCN1c1cccc(Cl)c1 | 19 nM | 2300 nM | 250 nM |  | 
COc1cc(Cn2cncc2CN2CCN(c3cccc(Cl)c3)C(=O)C2)ccc1-c1ccc(C(F)(F)F)cc1 | 1.6 nM | 70 nM | 12 nM |  | 
N#Cc1ccc2cc1Oc1ccc3cccc(c3c1)N1CCN(CCc3cncn3C2)CC1=O | 0.25 nM | 16 nM | 0.19 nM |  | 
O=C1CN2CCc3cncn3Cc3cccc(c3)Oc3ccc4cccc(c4c3)N1CC2 | 8 nM | 509 nM |  |  | 
COc1cc(C(F)(F)F)ccc1-c1ccc(Cn2cncc2CN2CCN(c3cccc(Cl)c3)C(=O)C2)cc1 | 392 nM | 1860 nM |  |  | 
O=C1CN(Cc2cncn2Cc2ccc(-c3ccc(Cl)cc3)cc2)CCN1c1cccc(Cl)c1 | 8.7 nM | 210 nM | 193 nM |  | 
O=C1CN(Cc2cncn2Cc2ccc(-c3cc(Cl)cc(Cl)c3)cc2)CCN1c1cccc(Cl)c1 | 35 nM | 3030 nM | 600 nM |  | 
O=C1CN(Cc2cncn2Cc2ccc(-c3ccc(F)cc3)cc2)CCN1c1cccc(Cl)c1 | 15 nM | 1340 nM | 662 nM |  | 

Source: ChEMBL document CHEMBL1135967, “Potent inhibitors of farnesyltransferase and geranylgeranyltransferase-I” (Bioorg Med Chem Lett, 2002)
